Patent US6583150B1, “Pharmaceutical composition based on polyaromatic compounds” (Laboratorie L. Lafon, priority 1999, dated 2003)
Like-named read-outs stand apart in the source and are kept apart here.

Experiments:
[1] = Determination of the maximum tolerated dose (MTD); format: in vivo; settings: mouse, in vivo, ip; single intraperitoneal administration, survival over 14 days, B6D2F1/Jico mice
Description: (§1) The evaluation of the maximum tolerated dose was carried out on 4- to 6-week-old B6D2F1/Jico mice. […] The value of the MTD (expressed in mg/kg) is determined from observing the survival rate of the animals over a period of 14 days after a single administration of the product under consideration. The change in the weight of the animals is also monitored over this period.

[2] = tested on: 12 human tumor lines: U-87MG, U-373MG, SW 1088, T24, J82, HCT-15, LoVo, MCF7, T-47D, A549, A-427 and PC-3; assay: MTT cytotoxicity test, panel of the 12 human tumor lines; format: cell-based; settings: read-out: average IC50
Description: (§2) The influence of the compounds of formulae I and II on neoplastic cells was evaluated using the MTT calorimetric test. The principle of the MTT test is based on the mitochondrial reduction by metabolically active live cells of the yellow-colored product MTT (3-(4,5-dimethylthiazol-2-yl)-2,5-diphenyltetrazolium bromide) to a blue-colored product, formazan. The amount of formazan thus obtained is directly proportional to the amount of live cells present in the culture well(s). This amount of formazan is measured by spectrophotometry.
(§3) The cell lines are maintained in monolayer culture at 37° C. in stoppered culture dishes containing 25 MM HEPES MEM (Minimum Essential Medium) base medium. This medium, which is suitable for growing a range of varied diploid or primary mammalian cells, is then supplemented: […]
(§4) with a an amount of 5% FCS (Fetal Calf Serum) decomplemented at 56° C. for 1 hour, with 0.6 mg/mL of L-glutamine, with 200 IU/mL of penicillin, with […] of streptomycin, with 0.1 mg/mL of gentamicin.
(§5) The 12 human cancer cell lines used were obtained from the American Type Culture Collection (ATCC, Rockville, Md., USA). These 12 cell lines are:
U-373MG (code ATCC: HTB-17) and U-87MG (code ATCC: HTB-14) which are two glioblastomas, SW1088 (code ATCC: HTB-12) which is an astrocytoma, A549 (code ATCC: CCL-185) and A-427 (code ATCC: HTB-53) which are two non-small-cell lung cancers, HCT-15 (code ATCC: CCL-225) and LoVo (code ATCC: CCL-229) which are two colorectal cancers, T-47D (code ATCC: HTB-133) and MCF7 (code ATCC: HTB-22) which are two breast cancers, J82 (code ATCC: HTB-1) and T24 (code ATCC: HTB-4) which are two bladder cancers, PC-3 (code ATCC: CRL-1435) which is a prostate cancer.
Experimentally: 100 μl of a cell suspension containing 200 000 to 50 000 (depending on the cell type used) cells/mL of culture medium are inoculated in flat-bottomed 96-well multi-well plates and are incubated at 37° C. under an atmosphere comprising 5% CO2 and 70% humidity. After incubating for 24 hours, the culture medium is replaced with 100 μl of fresh medium containing either the various test compounds at concentrations ranging from 10^−5 to 10^−10 M or the solvent used to dissolve the test products (control condition). After incubating for 72 hours under the above conditions, the culture medium is replaced with 100 μl of a yellowish solution of MTT dissolved at a rate of 1 mg/mL in RPMI 1640. The microplates are reincubated for 3 hours at 37° C. and then centrifuged for 10 minutes at 400×g. The yellowish solution of MTT is removed and the blue formazan crystals formed at the cellular level are dissolved in 100 μl of DMSO. The microplates are then agitated for 5 minutes. The intensity of the resulting blue coloration, and thus of the conversion of the yellow MTT product into blue formazan by the cells that are still alive at the end of the experiment is quantified by spectrophotometry using a DYNATECH IMMUNOASSAY SYSTEM machine at wavelengths of 570 nm and 630 nm corresponding, respectively, to the maximum absorption wavelengths of formazan and to the background noise. Software built into the spectrophotometer calculates the average optical density values and also the standard deviation (Std. Dev.) and standard error of mean (SEM) values.
The inhibitory activity on the cell growth of the compounds of formula I and of formula II on the different tumor cell lines was compared with that of the natural product meridine (CRL 8348). All of the compounds of formula I and of formula II show significant inhibitory activity on the cell proliferation of the 12 human tumor lines: U-87MG, U-373MG, SW 1088, T24, J82, HCT-15, LoVo, MCF7, T-47D, A549, A-427 and PC-3 with an inhibitory concentration 50 (IC50) which is between 10^−6 M and 10^−10M, depending on the compounds and the tumor lines tested. By way of example, the values of the concentrations flanking the IC50 which are obtained on the various cell lines are given in table II: […]

U-373MG = assay: MTT cytotoxicity test, U-373MG; format: cell-based; settings: Homo sapiens, U373 MG, U-373MG glioblastoma, 72 hours, read-out: concentrations flanking the IC50
Description: as §2, §3, §4, §5
(§6) U-373MG (code ATCC: HTB-17) and U-87MG (code ATCC: HTB-14) which are two glioblastomas, Experimentally: 100 μl of a cell suspension containing 200 000 to 50 000 (depending on the cell type used) cells/mL of culture medium are inoculated in flat-bottomed 96-well multi-well plates and are incubated at 37° C. under an atmosphere comprising 5% CO2 and 70% humidity. […] The intensity of the resulting blue coloration, and thus of the conversion of the yellow MTT product into blue formazan by the cells that are still alive at the end of the experiment is quantified by spectrophotometry using a DYNATECH IMMUNOASSAY SYSTEM machine at wavelengths of 570 nm and 630 nm corresponding, respectively, to the maximum absorption wavelengths of formazan and to the background noise. […]

B6D2F1/Jico mice = assay: Determination of the maximum tolerated dose (MTD); format: in vivo; settings: single intraperitoneal administration, survival over 14 days
Description: as §1

U-87MG = assay: MTT cytotoxicity test, U-87MG; format: cell-based; settings: Homo sapiens, U-87MG glioblastoma, 72 hours, read-out: concentrations flanking the IC50
Description: as §2, §3, §4, §5, §6

MCF7 = assay: MTT cytotoxicity test, MCF7; format: cell-based; settings: Homo sapiens, MCF7 breast cancer, 72 hours, read-out: concentrations flanking the IC50
Description: as §2, §3, §4
The 12 human cancer cell lines used were obtained from the American Type Culture Collection (ATCC, Rockville, Md., USA). These 12 cell lines are: […]

CN(C)c1ccnc2c1-c1nc3ccccc3c3ccnc(c13)C2=O [CRL 8427, 12-Dimethylaminobenzo[b]pyrido[4,3,2-de][1,7]phenanthroline-8-one]
MTD at 14 days [1]: > 160 mg/kg

O=C1c2nc(O)ccc2C(=O)c2c(-c3ccccc3NC(=O)C(F)(F)F)ccnc21 [CRL 8429, 8-Hydroxy-4-(2-trifluoroacetamidophenyl)pyrido[3,2-g]-quinoline-5,10-dione]
MTD at 14 days [1]: 40 mg/kg

O=C1c2nccc(Cl)c2C(=O)c2c(-c3ccccc3[N+](=O)[O-])ccnc21 [CRL 8296, 6-Chloro-4-(2-nitrophenyl)pyrido[3,2-g]quinoline-5,10-dione]
MTD at 14 days [1]: 80 mg/kg

O=C1c2ncccc2C(=O)c2c(-c3ccccc3NC(=O)C(F)(F)F)ccnc21 [CRL 8277, 4-(2-Trifluoroacetamidophenyl)pyrido[3,2-g]quinoline-5,10-dione]
MTD at 14 days [1]: > 40 mg/kg
IC50 ([2]; Homo sapiens): 12.5 nM

O=C(O)C(F)(F)F.O=C1c2nccc(Br)c2-c2nc3ccccc3c3ccnc1c23 [CRL 8259, 12-Bromobenzo[b]pyrido[4,3,2-de][1,7]phenanthroline-8-one Trifluoroacetate]
MTD at 14 days [1]: 40 mg/kg

O=C1c2nccc([N+](=O)[O-])c2-c2nc3ccccc3c3ccnc1c23 [CRL 8273, 12-Nitrobenzo[b]pyrido[4,3,2-de][1,7]phenanthroline-8-one]
MTD at 14 days [1]: > 80 mg/kg

COc1ccnc2c1C(=O)c1c(-c3ccccc3[N+](=O)[O-])ccnc1C2=O [CRL 8243, 6-Methoxy-4-(2-nitrophenyl)pyrido[3,2-g]quinoline-5,10-dione]
MTD at 14 days [1]: > 160 mg/kg

O=C1c2nccc(Cl)c2C(=O)c2c(-c3ccccc3NC(=O)C(F)(F)F)ccnc21 [CRL 8250, 6-Chloro-4-(2-trifluoroacetamidophenyl)pyrido[3,2-g]-quinoline-5,10-dione]
MTD at 14 days [1]: 20 mg/kg

O=C1c2nccc(O)c2-c2nc3ccccc3c3ccnc1c23 [CRL 8348, meridine, reference compound]
MTD at 14 days [1]: > 160 mg/kg
IC50 (U-373MG): 100 nM
IC50 ([2]; Homo sapiens): 170 nM

O=C(O)C(F)(F)F.O=C1c2nccc([N+](=O)[O-])c2-c2nc3ccccc3c3ccnc1c23 [CRL 8258, 12-Nitrobenzo[b]pyrido[4,3,2-de][1,7]phenanthroline-8-one Trifluoroacetate]
MTD at 14 days [1]: 40 mg/kg

O=C1c2nccc(Cl)c2-c2nc3ccccc3c3ccnc1c23 [CRL 8242, 12-Chlorobenzo[b]pyrido[4,3,2-de][1,7]phenanthroline-8-one]
MTD at 14 days [1]: > 160 mg/kg

O=C1c2nccc(-c3ccccc3NC(=O)C(F)(F)F)c2C(=O)c2c([N+](=O)[O-])ccnc21 [CRL 8267, 6-Nitro-4-(2-trifluoroacetamidophenyl)pyrido[3,2-g]-quinoline-5,10-dione]
MTD at 14 days [1]: 20 mg/kg

CC(=O)Nc1ccnc2c1C(=O)c1c(-c3ccccc3NC(=O)C(F)(F)F)ccnc1C2=O [CRL 8428, 6-(Acetamido)-4-(2-trifluoroacetamidophenyl)pyrido-[3,2-g]quinoline-5,10-dione]
MTD at 14 days [1]: > 160 mg/kg

O=C1c2nc(O)ccc2-c2nc3ccccc3c3ccnc1c23 [CRL 8432, 10-Hydroxybenzo[b]pyrido[4,3,2-de][1,7]phenanthroline-8-one]
MTD at 14 days [1]: > 160 mg/kg

cystodamine [reference compound]
MTD (B6D2F1/Jico mice): >160 mg/kg
IC50 ([2]; calculated from the cytotoxic activity on the 12 tumor lines studied): 100 nM

CN(C)c1ccnc2c1C(=O)c1c(-c3ccccc3NC(=O)C(F)(F)F)ccnc1C2=O [CRL 8426, 6-(Dimethylamino)-4-(2-trifluoroacetamidophenyl)pyrido-[3,2-g]quinoline-5,10-dione]
MTD at 14 days [1]: > 160 mg/kg

Nc1ccnc2c1C(=O)c1c(-c3ccccc3[N+](=O)[O-])ccnc1C2=O [CRL 8300, 6-Amino-4-(2-nitrophenyl)pyrido[3,2-g]quinoline-5,10-dione]
MTD at 14 days [1]: 80 mg/kg

COc1ccnc2c1-c1nc3ccccc3c3ccnc(c13)C2=O [CRL 8276, 12-Methoxybenzo[b]pyrido[4,3,2-de][1,7]phenanthroline-8-one]
MTD at 14 days [1]: 80 mg/kg
IC50 (U-373MG): < 0.1 nM
IC50 (U-87MG): < 0.1 nM
IC50 ([2]; Homo sapiens): 2.1 nM
IC50 (MCF7): < 0.1 nM
